Patent publication US20020137929A1, “1 - (3-heterocyclylphenyl) isothiourea, -isourea, -guanidine and -amidine herbicidal agents” (Intellectual Property Department, BASF Aktiengesellschaft, priority 1998, published 2002)

Legend:
AMBEL (Ragweed, Common) = experiment: Postemergence herbicidal evaluation; type: in vivo, Ambrosia artemisifolia
Method in brief: (§1)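 Young plants, roughly two weeks from seeding, receive the active ingredient as a sprayed dispersion (acetone/water 50/50, 0.5% TWEEN 20) at 40 psi. Doses span about 0.0156 to 0.500 kg/ha. A visual score from 0 to 9 compares treated with control plants four to five weeks on.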

[1] = tested on: SAGPY (Arrowhead (Pygmaea)); experiment: Preemergence weed control under flooded paddy conditions; type: in vivo, Sagittaria pygmaea; details: rated 3-4 weeks after treatment
Method in brief: (§2)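 Ratings on a 0-9 visual scale cover stand, vigor, malformation, size, chlorosis and overall appearance relative to a control, taken three to four weeks post-treatment. Application was into flood water over freshly sown silt loam at roughly 0.0313 to 0.500 kg/ha.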

CASOB (Sicklepod) = experiment: Preemergence herbicidal evaluation; type: in vivo, Cassia obtusifolia; details: rated 4-5 weeks after treatment
Method in brief: (§3)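 Rating at 4–5 wk post-spray on a 0–9 visual scale vs control. Application: aqueous acetone, ~0.0156–0.500 kg/ha, to soil surface after seeding, preemergence.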

ORYSAT (Rice, Tebonnet) = experiment: Postemergence herbicidal evaluation; type: in vivo, Oryza sativa, (L.) Tebonnet
Method in brief: as §1

ECHCG (Barnyardgrass) = experiment: Postemergence herbicidal evaluation; type: in vivo, Echinochloa crus-galli
Method in brief: as §1

SETVI (Foxtail, Green) [2] = experiment: Preemergence herbicidal evaluation; type: in vivo, Setaria viridis; details: rated 4-5 weeks after treatment
Method in brief: as §3

[3] = tested on: GLXMAW (Soybean, Williams); experiment: Postemergence herbicidal evaluation; type: in vivo, Glycine max, (L.) Merr. cv Williams
Method in brief: as §1

[4] = tested on: SAGPY (Arrowhead (Pygmaea)); experiment: Postemergence weed control under flooded paddy conditions; type: in vivo, Sagittaria pygmaea; details: postemergence weeds, 3-4 weeks after treatment
Method in brief: (§4)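 Weeds 3 to 5 cm tall and rice seedlings at the 1.5 to 2.5 leaf stage were flooded, with water held 1.5 to 3 cm above the soil. Compounds in 50/50 v/v aqueous/acetone went into the flood water at about 0.0313 to 0.500 kg/ha. Visual 0-9 ratings versus control were made 3 to 4 weeks later.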

SETVI (Foxtail, Green) [5] = experiment: Postemergence herbicidal evaluation; type: in vivo, Setaria viridis
Method in brief: as §1

CYPIR (Rice Flatsedge) = experiment: Postemergence weed control under flooded paddy conditions; type: in vivo, Cyperus iria; details: postemergence weeds, 3-4 weeks after treatment
Method in brief: as §4

MOOVA (Monochoria) = experiment: Preemergence weed control under flooded paddy conditions; type: in vivo, Monochoria vaginalis; details: rated 3-4 weeks after treatment
Method in brief: as §2

[6] = tested on: TRZAWR (Wheat, Winter, cv Riband); experiment: Postemergence herbicidal evaluation; type: in vivo, Triticum aestivum
Method in brief: as §1

ABUTH (Velvetleaf) [7] = experiment: Preemergence herbicidal evaluation; type: in vivo, Abutilon theophrasti; details: rated 4-5 weeks after treatment
Method in brief: as §3

ABUTH (Velvetleaf) [8] = experiment: Postemergence herbicidal evaluation; type: in vivo, Abutilon theophrasti
Method in brief: as §1

Compound: CCOC(=O)CN1C(=O)C[S+]([O-])/C1=N/c1cc(-n2c(=O)cc(C(F)(F)F)n(C)c2=O)c(F)cc1Cl (stereo not shown) [Compound 45, 2-{{2-Chloro-5-[3,6-dihydro-3-methyl-2,6-dioxo-4-(trifluoromethyl)-1(2H)-pyrimidinyl]-4-fluoro-phenyl}imino}-4-oxo-3-thiazolidineacetic acid, ethyl ester, 1-oxide]
- Postemergence herbicidal rating AMBEL (AMBEL (Ragweed, Common); Rate 0.0313 kg/ha): 4.0
- Postemergence herbicidal rating AMBEL (AMBEL (Ragweed, Common); Rate 0.0625 kg/ha): 9.0
- Herbicidal rating SAGPY ([1]; 0.0313 kg/ha): 0.0
- Herbicidal rating SAGPY ([1]; 0.0625 kg/ha): 0.0
- Herbicidal rating SAGPY ([1]; 0.1250 kg/ha): 0.0
- Herbicidal rating SAGPY ([1]; 0.2500 kg/ha): 4.0
- Preemergence herbicidal rating CASOB (CASOB (Sicklepod); rate 0.0156 kg/ha): 0.0
- Preemergence herbicidal rating CASOB (CASOB (Sicklepod); rate 0.0313 kg/ha): 0.0
- Preemergence herbicidal rating CASOB (CASOB (Sicklepod); rate 0.0625 kg/ha): 0.0
- Preemergence herbicidal rating CASOB (CASOB (Sicklepod); rate 0.1250 kg/ha): 0.0
- Preemergence herbicidal rating CASOB (CASOB (Sicklepod); rate 0.2500 kg/ha): 0.0
- Postemergence herbicidal rating ORYSAT (ORYSAT (Rice, Tebonnet); Rate 0.0156 kg/ha): 1.5
- Postemergence herbicidal rating ORYSAT (ORYSAT (Rice, Tebonnet); Rate 0.0313 kg/ha): 1.5
- Postemergence herbicidal rating ORYSAT (ORYSAT (Rice, Tebonnet); Rate 0.0625 kg/ha): 2.0
- Postemergence herbicidal rating ECHCG (ECHCG (Barnyardgrass); Rate 0.0156 kg/ha): 0.0
- Postemergence herbicidal rating ECHCG (ECHCG (Barnyardgrass); Rate 0.0313 kg/ha): 0.0
- Postemergence herbicidal rating ECHCG (ECHCG (Barnyardgrass); Rate 0.0625 kg/ha): 0.0
- Preemergence herbicidal rating SETVI (SETVI (Foxtail, Green) [2]; rate 0.0156 kg/ha): 0.0
- Preemergence herbicidal rating SETVI (SETVI (Foxtail, Green) [2]; rate 0.0313 kg/ha): 0.0
- Preemergence herbicidal rating SETVI (SETVI (Foxtail, Green) [2]; rate 0.0625 kg/ha): 0.0
- Preemergence herbicidal rating SETVI (SETVI (Foxtail, Green) [2]; rate 0.1250 kg/ha): 0.0
- Preemergence herbicidal rating SETVI (SETVI (Foxtail, Green) [2]; rate 0.2500 kg/ha): 0.0
- Postemergence herbicidal rating GLXMAW ([3]; Rate 0.0156 kg/ha): 5.5
- Postemergence herbicidal rating GLXMAW ([3]; Rate 0.0313 kg/ha): 6.5
- Postemergence herbicidal rating GLXMAW ([3]; Rate 0.0625 kg/ha): 7.0
- Herbicidal rating SAGPY ([4]; rate 0.0313 kg/ha): 0.0
- Herbicidal rating SAGPY ([4]; rate 0.0625 kg/ha): 0.0
- Herbicidal rating SAGPY ([4]; rate 0.1250 kg/ha): 0.0
- Herbicidal rating SAGPY ([4]; rate 0.2500 kg/ha): 4.0
- Postemergence herbicidal rating SETVI (SETVI (Foxtail, Green) [5]; Rate 0.0156 kg/ha): 0.0
- Postemergence herbicidal rating SETVI (SETVI (Foxtail, Green) [5]; Rate 0.0313 kg/ha): 0.0
- Postemergence herbicidal rating SETVI (SETVI (Foxtail, Green) [5]; Rate 0.0625 kg/ha): 2.0
- Herbicidal rating CYPIR (CYPIR (Rice Flatsedge); rate 0.0313 kg/ha): 0.0
- Herbicidal rating CYPIR (CYPIR (Rice Flatsedge); rate 0.0625 kg/ha): 3.0
- Herbicidal rating CYPIR (CYPIR (Rice Flatsedge); rate 0.1250 kg/ha): 7.0
- Herbicidal rating CYPIR (CYPIR (Rice Flatsedge); rate 0.2500 kg/ha): 7.0
- Herbicidal rating MOOVA (MOOVA (Monochoria); 0.0313 kg/ha): 7.0
- Herbicidal rating MOOVA (MOOVA (Monochoria); 0.0625 kg/ha): 7.0
- Herbicidal rating MOOVA (MOOVA (Monochoria); 0.1250 kg/ha): 9.0
- Herbicidal rating MOOVA (MOOVA (Monochoria); 0.2500 kg/ha): 9.0
- Postemergence herbicidal rating TRZAWR ([6]; Rate 0.0156 kg/ha): 4.0
- Postemergence herbicidal rating TRZAWR ([6]; Rate 0.0313 kg/ha): 4.0
- Postemergence herbicidal rating TRZAWR ([6]; Rate 0.0625 kg/ha): 4.5
- Preemergence herbicidal rating ABUTH (ABUTH (Velvetleaf) [7]; rate 0.0156 kg/ha): 0.0
- Preemergence herbicidal rating ABUTH (ABUTH (Velvetleaf) [7]; rate 0.0313 kg/ha): 9.0
- Preemergence herbicidal rating ABUTH (ABUTH (Velvetleaf) [7]; rate 0.0625 kg/ha): 9.0
- Preemergence herbicidal rating ABUTH (ABUTH (Velvetleaf) [7]; rate 0.1250 kg/ha): 9.0
- Preemergence herbicidal rating ABUTH (ABUTH (Velvetleaf) [7]; rate 0.2500 kg/ha): 9.0
- Postemergence herbicidal rating ABUTH (ABUTH (Velvetleaf) [8]; Rate 0.0156 kg/ha): 9.0
- Postemergence herbicidal rating ABUTH (ABUTH (Velvetleaf) [8]; Rate 0.0313 kg/ha): 9.0
- Postemergence herbicidal rating ABUTH (ABUTH (Velvetleaf) [8]; Rate 0.0625 kg/ha): 9.0

Compound: CCOC(=O)CN1C(=O)CSC1=Nc1cc(N2C(=O)C3=C(CCCC3)C2=O)c(F)cc1Cl [Compound 47, Ethyl 2-{[2-chloro-5-(1-cyclohexene-1,2-dicarboximido)-4-fluorophenyl]imino}-4-oxo-3-thiazolidineacetate]
- Postemergence herbicidal rating AMBEL (AMBEL (Ragweed, Common); Rate 0.0156 kg/ha): 3.0
- Postemergence herbicidal rating AMBEL (AMBEL (Ragweed, Common); Rate 0.0313 kg/ha): 9.0
- Postemergence herbicidal rating AMBEL (AMBEL (Ragweed, Common); Rate 0.0625 kg/ha): 9.0
- Herbicidal rating SAGPY ([1]; 0.0313 kg/ha): 0.0
- Herbicidal rating SAGPY ([1]; 0.0625 kg/ha): 0.0
- Herbicidal rating SAGPY ([1]; 0.1250 kg/ha): 4.0
- Herbicidal rating SAGPY ([1]; 0.2500 kg/ha): 7.0
- Preemergence herbicidal rating CASOB (CASOB (Sicklepod); rate 0.0156 kg/ha): 0.0
- Preemergence herbicidal rating CASOB (CASOB (Sicklepod); rate 0.0313 kg/ha): 0.0
- Preemergence herbicidal rating CASOB (CASOB (Sicklepod); rate 0.0625 kg/ha): 0.0
- Preemergence herbicidal rating CASOB (CASOB (Sicklepod); rate 0.1250 kg/ha): 0.0
- Preemergence herbicidal rating CASOB (CASOB (Sicklepod); rate 0.2500 kg/ha): 0.0
- Postemergence herbicidal rating ORYSAT (ORYSAT (Rice, Tebonnet); Rate 0.0156 kg/ha): 0.5
- Postemergence herbicidal rating ORYSAT (ORYSAT (Rice, Tebonnet); Rate 0.0313 kg/ha): 1.5
- Postemergence herbicidal rating ORYSAT (ORYSAT (Rice, Tebonnet); Rate 0.0625 kg/ha): 3.0
- Postemergence herbicidal rating ECHCG (ECHCG (Barnyardgrass); Rate 0.0156 kg/ha): 0.0
- Postemergence herbicidal rating ECHCG (ECHCG (Barnyardgrass); Rate 0.0313 kg/ha): 0.0
- Postemergence herbicidal rating ECHCG (ECHCG (Barnyardgrass); Rate 0.0625 kg/ha): 0.0
- Preemergence herbicidal rating SETVI (SETVI (Foxtail, Green) [2]; rate 0.0156 kg/ha): 0.0
- Preemergence herbicidal rating SETVI (SETVI (Foxtail, Green) [2]; rate 0.0313 kg/ha): 0.0
- Preemergence herbicidal rating SETVI (SETVI (Foxtail, Green) [2]; rate 0.0625 kg/ha): 0.0
- Preemergence herbicidal rating SETVI (SETVI (Foxtail, Green) [2]; rate 0.1250 kg/ha): 0.0
- Preemergence herbicidal rating SETVI (SETVI (Foxtail, Green) [2]; rate 0.2500 kg/ha): 4.0
- Postemergence herbicidal rating GLXMAW ([3]; Rate 0.0156 kg/ha): 5.5
- Postemergence herbicidal rating GLXMAW ([3]; Rate 0.0313 kg/ha): 7.0
- Postemergence herbicidal rating GLXMAW ([3]; Rate 0.0625 kg/ha): 7.5
- Herbicidal rating SAGPY ([4]; rate 0.0313 kg/ha): 0.0
- Herbicidal rating SAGPY ([4]; rate 0.0625 kg/ha): 0.0
- Herbicidal rating SAGPY ([4]; rate 0.1250 kg/ha): 4.0
- Herbicidal rating SAGPY ([4]; rate 0.2500 kg/ha): 7.0
- Postemergence herbicidal rating SETVI (SETVI (Foxtail, Green) [5]; Rate 0.0156 kg/ha): 0.0
- Postemergence herbicidal rating SETVI (SETVI (Foxtail, Green) [5]; Rate 0.0313 kg/ha): 0.0
- Postemergence herbicidal rating SETVI (SETVI (Foxtail, Green) [5]; Rate 0.0625 kg/ha): 0.0
- Herbicidal rating CYPIR (CYPIR (Rice Flatsedge); rate 0.0313 kg/ha): 0.0
- Herbicidal rating CYPIR (CYPIR (Rice Flatsedge); rate 0.0625 kg/ha): 0.0
- Herbicidal rating CYPIR (CYPIR (Rice Flatsedge); rate 0.1250 kg/ha): 4.0
- Herbicidal rating CYPIR (CYPIR (Rice Flatsedge); rate 0.2500 kg/ha): 6.0
- Herbicidal rating MOOVA (MOOVA (Monochoria); 0.0313 kg/ha): 5.0
- Herbicidal rating MOOVA (MOOVA (Monochoria); 0.0625 kg/ha): 6.0
- Herbicidal rating MOOVA (MOOVA (Monochoria); 0.1250 kg/ha): 9.0
- Herbicidal rating MOOVA (MOOVA (Monochoria); 0.2500 kg/ha): 9.0
- Postemergence herbicidal rating TRZAWR ([6]; Rate 0.0156 kg/ha): 2.5
- Postemergence herbicidal rating TRZAWR ([6]; Rate 0.0313 kg/ha): 3.5
- Postemergence herbicidal rating TRZAWR ([6]; Rate 0.0625 kg/ha): 4.5
- Preemergence herbicidal rating ABUTH (ABUTH (Velvetleaf) [7]; rate 0.0156 kg/ha): 4.0
- Preemergence herbicidal rating ABUTH (ABUTH (Velvetleaf) [7]; rate 0.0313 kg/ha): 4.0
- Preemergence herbicidal rating ABUTH (ABUTH (Velvetleaf) [7]; rate 0.0625 kg/ha): 9.0
- Preemergence herbicidal rating ABUTH (ABUTH (Velvetleaf) [7]; rate 0.1250 kg/ha): 9.0
- Preemergence herbicidal rating ABUTH (ABUTH (Velvetleaf) [7]; rate 0.2500 kg/ha): 9.0
- Postemergence herbicidal rating ABUTH (ABUTH (Velvetleaf) [8]; Rate 0.0156 kg/ha): 9.0
- Postemergence herbicidal rating ABUTH (ABUTH (Velvetleaf) [8]; Rate 0.0313 kg/ha): 9.0
- Postemergence herbicidal rating ABUTH (ABUTH (Velvetleaf) [8]; Rate 0.0625 kg/ha): 9.0
